Experimental data from patent publication US20120115804A1, “COMPOSITIONS AND METHODS FOR CHARACTERIZING AND TREATING NEOPLASIA” (The John Hopkins University, priority 2009, published 2012).
Entries after “also recorded” stand apart in the source; their conditions may differ. Read-outs that look alike come from different tables or passages of the source.

Legend:
VDRE containing genes = assay: Expression of VDRE-containing genes after treatment in vitro; format: cell-based, human
Experimental: FIGS. 6A-6C show expression levels of VDR Response Element (VDRE)-containing genes in primary breast cancer and normal breast tissue. […] Assays were performed in triplicate on a total of 8 breast cancers and 3 normal organoid preparations. […] Means and standard deviations are shown. Significant differences between normal and cancer are indicated (* p<0.05; ** p<0.01). […] The bars represent the fold induction of VDR downstream gene targets (CYP3A4[24/25OH]-white, CYP27B1[1OH]-grey, and C/EBP-hatched) over untreated control (horizontal line=1.0). Means and standard deviations of triplicate experiments are shown (* p<0.05; ** p<0.01).

[1] = system: breast cancer cell lines (HS578T, 21PT, MCF7, and T47D) and the immortalized normal breast epithelial cell line HBL100; details: 96 hours, Calcitriol 1.5 μM, AZA 10 μM, alone or combined, five breast cell lines, vs vehicle control
Experimental: Cell viability was measured by MTT assay.
(§1) Human breast cell lines were obtained from American Type Culture Collection (Rockville, Md.) and propagated as described 17. For pharmacological assays, 1.0×10^6 cells were seeded in 25 cm^2 tissue culture flasks.
Cell viability was measured using the Cell Titer 96 AQ-One Solution Cell Proliferation Assay kit from Promega Corporation (Madison, Wis.). Formazan absorbance was read at 490 nm in a 96-well plate reader.

VDR promoter = details: 96 hours, all breast cell lines
Experimental: To determine whether the VDR gene promoter was hypermethylated in breast cancer, bisulfite sequencing was performed in the region 790 bp upstream to 380 bp downstream of the VDR transcription start site after treatment of cells in the presence or absence of AZA for ninety six hours (see FIG. 3).
PCR products were separated electrophoretically and isolated using a PCR purification kit (Qiagen, Valencia, Calif.). DNA was sequenced using the M13 Reverse Primer with an Applied Biosystems automated fluorescent sequencer according to the manufacturer's instructions. Percent DNA methylation was determined using the ratio of cytidine to thymidine traces at CpG dinucleotides.

VDR variants = details: after treatment; for levels of V1 and V2 VDR variants (active transcripts): all the breast cell lines
From the text: The V1d primers, spanning exon 1d and the junction of exon 1c and exon 2, were designed to recognize the transcript variants v1d, V1d′ and v1d″ (FIG. 1). In order to detect all of these variants, the nonspecific V6 primers, spanning exon 3 and exon 4, were used.
The PCR products were separated on 2% agarose gels, scanned in a Gel Doc Imager (BioRad, Philadelphia, Pa.), and quantified using Image Quant software (BioRad, Philadelphia, Pa.).

VDR mRNA = details: placental carcinoma cell lines; Pospechova et al. 2009; cited from earlier work
VDR = assay: Quantitative Real-Time PCR of total VDR expression in breast cell lines; details: 96 hours, V primer set
Experimental: as §1
PCR was then performed for 40 cycles using gene-specific primers. To determine total VDR levels, pre-mixed “Assay on Demand” primer-probe sets for VDR (Hs01045843_m1) and GAPDH (Hs99999905_m1) and the GeneAmp® Fast PCR Master Mix were purchased from Applied Biosystems (Foster City, Calif.) and cDNA was amplified following the manufacturer's instructions in the ABI PRISM 7900HT instrument.

Row | Compound | expression of VDRE containing genes (VDRE containing genes) | cell viability / growth inhibition [1] | methylation of the CpG islands in the VDR promoter (VDR promoter) | methylation of the CpG islands in the VDR promoter (VDR promoter; listed as 5′ dAZA) | levels of V1 and V2 VDR variants (active transcripts) (VDR variants) | levels of V1 and V2 VDR variants (active transcripts) (VDR variants; listed as 5′ dAZA) | V1d and V1d′ VDR variants, response to demethylation (VDR variants; breast cell lines) | VDR mRNA expression (VDR mRNA) | overall expression level of VDR (total VDR transcripts) (VDR) | cell viability / growth inhibition ([1]; listed as VTD)
1 | 5′ deoxy-azacytidine | concurrent increase | restoration of sensitivity | induced demethylation | demethylated | significantly increased; also recorded: induced the re-expression | restored | less responsive | re-expression | parallel increase | 
2 | C=C1/C(=C\C=C2/CCC[C@]3(C)[C@@H]([C@H](C)CCCC(C)(C)O)CC[C@@H]23)C[C@@H](O)C[C@@H]1O [Calcitriol, 1,25-dihydroxyvitamin D3] |  | minimal effects; also recorded: insensitivity |  |  |  |  |  |  |  | ineffective
